Assay results taken from US20100015141A1, “4-PHENOXY-6-ARYL-1H-PYRAZOLO[3,4-D]PYRIMIDINE AND N-ARYL-6-ARYL-1H-PYRAZOLO[3,4-D]PYRIMIDIN-4-AMINE COMPOUNDS, THEIR USE AS MTOR KINASE AND PI3 KINASE INHIBITORS, AND THEIR SYNTHESES” (Wyeth, priority 2008, published 2010).

Legend:
Assay type in all cases: biochemical
[1] = target: PI3K-α (Homo sapiens, UniProt P42336); assay: PI3K-alpha fluorescence polarization assay; conditions: 20 μM PIP2, 25 μM ATP
Experimental: (§1) The reaction buffer was 20 mM HEPES pH7.5, 2 mM MgCl2, 0.05% CHAPS, and 0.01% βME (added fresh). The substrate solution was 40 μM PIP2 (diC8, Echelon, Salt Lake City Utah cat #P-4508, 1 mM in water) and 50 μM ATP in the reaction buffer. Nunc 384-well black polypropylene fluorescent plates were used for PI3K assays. The assay is run by putting 9.5 μl of freshly diluted enzyme in the reaction buffer per well, adding 0.5 μl of diluted drug or DMSO, and mixing. Then 10 μl of the substrate solution is added to each well to start the reaction. A final concentration of 20 μM PIP2 and 25 μM ATP in the reaction was used. Reactions were allowed to proceed for 30-60 minutes at room temperature. After 30-60 minutes, 20 μl of a solution of 10 nM TAMRA detector (Red detector probe-Echelon) and 2.5 uM of GST-murineGRP (1.5 mg/ml in 17% glycerol) was added per well to stop the reaction. The resulting solution was mixed well and allowed to stand for 90-110 minutes before reading plate. Assay Plates were read on Perkin-Elmer Envision plate readers with appropriate filters for Tamra [BODIPY-TMRI(1,3,4,5)P4]. Data obtained were used to calculate enzymatic activity and enzyme inhibition by inhibitor compounds. It is important to keep Red probe solutions dark. This procedure is adapted from Echelon Biosciences Inc procedure for their PI3-Kinase fluorescence polarization activity Assay kit Product number K-1100.

[2] = target: PI3K-γ (Homo sapiens, UniProt P48736); assay: PI3K-gamma fluorescence polarization assay; conditions: 20 μM PIP2, 25 μM ATP
Experimental: as §1

[3] = target: mTOR (Homo sapiens, UniProt P42345); assay: mTOR enzyme assay (DELFIA, His6-S6K phosphorylation); design: FLAG; conditions: 100 μM ATP, 1.25 μM His6-S6K

Chain of PI3K-α (P42336 whole entry, species assumed): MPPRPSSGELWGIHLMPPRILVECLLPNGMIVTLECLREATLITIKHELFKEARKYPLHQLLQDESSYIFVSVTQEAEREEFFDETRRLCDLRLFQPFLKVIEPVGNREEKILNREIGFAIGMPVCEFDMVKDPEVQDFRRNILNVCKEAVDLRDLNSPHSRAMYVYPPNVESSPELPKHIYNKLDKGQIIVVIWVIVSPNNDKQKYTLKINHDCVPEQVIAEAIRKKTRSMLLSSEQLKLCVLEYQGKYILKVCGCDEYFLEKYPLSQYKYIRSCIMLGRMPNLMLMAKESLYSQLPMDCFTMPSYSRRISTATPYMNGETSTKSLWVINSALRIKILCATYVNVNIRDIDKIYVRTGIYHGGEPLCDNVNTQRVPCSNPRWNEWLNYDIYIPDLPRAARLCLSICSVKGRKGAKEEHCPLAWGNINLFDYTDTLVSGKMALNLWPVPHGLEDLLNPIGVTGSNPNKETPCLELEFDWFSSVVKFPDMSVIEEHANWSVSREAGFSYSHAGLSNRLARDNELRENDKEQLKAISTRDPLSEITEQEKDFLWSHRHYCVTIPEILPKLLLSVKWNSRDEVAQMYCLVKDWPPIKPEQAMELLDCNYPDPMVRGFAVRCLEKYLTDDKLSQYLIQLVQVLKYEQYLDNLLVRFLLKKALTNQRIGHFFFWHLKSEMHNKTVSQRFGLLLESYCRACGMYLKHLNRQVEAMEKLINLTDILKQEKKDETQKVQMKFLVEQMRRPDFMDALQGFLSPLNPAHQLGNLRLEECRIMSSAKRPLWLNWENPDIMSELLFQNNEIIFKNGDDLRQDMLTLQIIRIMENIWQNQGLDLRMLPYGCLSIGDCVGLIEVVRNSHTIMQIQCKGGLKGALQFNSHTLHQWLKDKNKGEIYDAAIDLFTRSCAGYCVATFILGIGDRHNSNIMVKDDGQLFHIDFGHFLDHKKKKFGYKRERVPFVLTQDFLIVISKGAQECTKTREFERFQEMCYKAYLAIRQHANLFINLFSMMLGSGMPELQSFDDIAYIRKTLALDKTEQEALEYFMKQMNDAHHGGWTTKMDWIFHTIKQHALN
Chain of PI3K-α (P27986 whole entry partner, species assumed): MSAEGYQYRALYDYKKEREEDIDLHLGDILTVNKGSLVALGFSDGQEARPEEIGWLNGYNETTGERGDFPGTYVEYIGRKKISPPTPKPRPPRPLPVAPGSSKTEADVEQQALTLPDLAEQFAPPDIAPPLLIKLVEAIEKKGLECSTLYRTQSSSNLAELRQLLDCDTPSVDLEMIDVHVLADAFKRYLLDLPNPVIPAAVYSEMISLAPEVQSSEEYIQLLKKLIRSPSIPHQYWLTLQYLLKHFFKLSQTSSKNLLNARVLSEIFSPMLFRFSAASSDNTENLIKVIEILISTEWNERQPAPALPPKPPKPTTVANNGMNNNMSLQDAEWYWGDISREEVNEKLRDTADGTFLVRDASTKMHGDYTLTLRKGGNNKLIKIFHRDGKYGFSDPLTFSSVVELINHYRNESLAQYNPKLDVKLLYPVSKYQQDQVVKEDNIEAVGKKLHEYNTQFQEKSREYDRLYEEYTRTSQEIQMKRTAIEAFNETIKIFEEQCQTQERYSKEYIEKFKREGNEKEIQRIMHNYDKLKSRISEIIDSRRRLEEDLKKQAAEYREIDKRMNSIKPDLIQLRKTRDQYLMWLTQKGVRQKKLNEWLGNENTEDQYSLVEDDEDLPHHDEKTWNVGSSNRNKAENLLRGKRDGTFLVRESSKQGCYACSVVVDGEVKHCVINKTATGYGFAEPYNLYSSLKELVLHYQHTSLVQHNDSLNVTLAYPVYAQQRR
Chain of PI3K-γ (P48736 whole entry, species assumed): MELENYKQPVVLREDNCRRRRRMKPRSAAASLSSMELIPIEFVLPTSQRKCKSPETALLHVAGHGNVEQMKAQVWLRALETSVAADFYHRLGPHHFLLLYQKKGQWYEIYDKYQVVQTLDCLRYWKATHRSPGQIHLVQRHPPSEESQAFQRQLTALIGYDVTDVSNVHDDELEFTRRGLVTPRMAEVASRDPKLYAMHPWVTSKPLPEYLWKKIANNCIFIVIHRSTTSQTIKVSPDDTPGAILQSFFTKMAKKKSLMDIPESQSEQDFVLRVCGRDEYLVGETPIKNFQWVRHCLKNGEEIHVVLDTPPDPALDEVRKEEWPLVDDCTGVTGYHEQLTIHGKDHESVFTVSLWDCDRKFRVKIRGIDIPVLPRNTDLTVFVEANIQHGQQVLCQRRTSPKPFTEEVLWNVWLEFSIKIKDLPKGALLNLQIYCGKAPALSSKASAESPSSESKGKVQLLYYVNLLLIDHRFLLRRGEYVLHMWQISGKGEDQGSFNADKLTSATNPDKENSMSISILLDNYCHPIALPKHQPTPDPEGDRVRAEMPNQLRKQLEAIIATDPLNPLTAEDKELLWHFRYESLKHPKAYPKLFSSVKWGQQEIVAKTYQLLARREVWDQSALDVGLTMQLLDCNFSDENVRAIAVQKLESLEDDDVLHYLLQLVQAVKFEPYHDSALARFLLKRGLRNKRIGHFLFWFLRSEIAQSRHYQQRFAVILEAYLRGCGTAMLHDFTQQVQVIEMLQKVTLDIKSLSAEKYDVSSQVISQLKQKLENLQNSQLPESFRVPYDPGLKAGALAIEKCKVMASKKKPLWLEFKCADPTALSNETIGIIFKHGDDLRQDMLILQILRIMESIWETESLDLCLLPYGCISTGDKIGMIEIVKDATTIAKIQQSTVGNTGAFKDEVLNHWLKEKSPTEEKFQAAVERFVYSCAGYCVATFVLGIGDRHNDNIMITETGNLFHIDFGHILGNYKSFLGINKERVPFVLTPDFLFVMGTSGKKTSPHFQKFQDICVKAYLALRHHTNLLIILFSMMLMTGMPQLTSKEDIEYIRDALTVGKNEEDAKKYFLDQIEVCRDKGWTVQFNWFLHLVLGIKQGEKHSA

Structure (SMILES) | IC50 [1] [µM] | IC50 [2] [µM] | IC50 [3] [µM]
NC(=O)c1ccc(Nc2nc(-c3ccccc3)nc3c2cnn3C2CCN(Cc3ccccc3)CC2)cc1 [Example 1, 4-{[1-(1-benzylpiperidin-4-yl)-6-phenyl-1H-pyrazolo[3,4-d]pyrimidin-4-yl]amino}benzamide] | 6.11 | 7 | 
COc1ccc(Nc2nc(-c3ccccc3)nc3c2cnn3C2CCN(Cc3ccccc3)CC2)cc1OC [Example 2, 1-(1-benzylpiperidin-4-yl)-N-(3,4-dimethoxyphenyl)-6-phenyl-1H-pyrazolo[3,4-d]pyrimidin-4-amine] | > 10 | 5.1 | 
NC(=O)c1cccc(Nc2nc(-c3ccccc3)nc3c2cnn3C2CCN(Cc3ccccc3)CC2)c1 [Example 3, 3-{[1-(1-benzylpiperidin-4-yl)-6-phenyl-1H-pyrazolo[3,4-d]pyrimidin-4-yl]amino}benzamide] | 7.28 | 5.02 | 
c1ccc(CN2CCC(n3ncc4c(Nc5ccc6[nH]ccc6c5)nc(-c5ccccc5)nc43)CC2)cc1 [Example 4, 1-(1-benzylpiperidin-4-yl)-N-1H-indol-5-yl-6-phenyl-1H-pyrazolo[3,4-d]pyrimidin-4-amine] | > 10 | 10.1 | 
CC(=O)Nc1cccc(Nc2nc(-c3ccccc3)nc3c2cnn3C2CCN(Cc3ccccc3)CC2)c1 [Example 5, N-(3-{[1-(1-benzylpiperidin-4-yl)-6-phenyl-1H-pyrazolo[3,4-d]pyrimidin-4-yl]amino}phenyl)acetamide] | 8.31 | 7 | 
NC(=O)c1ccc(Nc2nc(-c3cccc(O)c3)nc3c2cnn3C2CCN(Cc3ccccc3)CC2)cc1 [Example 6, 4-{[1-(1-benzylpiperidin-4-yl)-6-(3-hydroxyphenyl)-1H-pyrazolo[3,4-d]pyrimidin-4-yl]amino}benzamide] | 3.5 | 7 | 
COc1ccc(Nc2nc(-c3cccc(O)c3)nc3c2cnn3C2CCN(Cc3ccccc3)CC2)cc1OC [Example 7, 3-{1-(1-benzylpiperidin-4-yl)-4-[(3,4-dimethoxyphenyl)amino]-1H-pyrazolo[3,4-d]pyrimidin-6-yl}phenol] | > 10 | 5.92 | 
NC(=O)c1cccc(Nc2nc(-c3cccc(O)c3)nc3c2cnn3C2CCN(Cc3ccccc3)CC2)c1 [Example 8, 3-{[1-(1-benzylpiperidin-4-yl)-6-(3-hydroxyphenyl)-1H-pyrazolo[3,4-d]pyrimidin-4-yl]amino}benzamide] | 6.03 | 7 | 
Oc1cccc(-c2nc(Nc3ccc4[nH]ccc4c3)c3cnn(C4CCN(Cc5ccccc5)CC4)c3n2)c1 [Example 9, 3-[1-(1-benzylpiperidin-4-yl)-4-(1H-indol-5-ylamino)-1H-pyrazolo[3,4-d]pyrimidin-6-yl]phenol] | > 10 | 13.1 | 
CC(=O)Nc1cccc(Nc2nc(-c3cccc(O)c3)nc3c2cnn3C2CCN(Cc3ccccc3)CC2)c1 [Example 10, N-(3-{[1-(1-benzylpiperidin-4-yl)-6-(3-hydroxyphenyl)-1H-pyrazolo[3,4-d]pyrimidin-4-yl]amino}phenyl)acetamide] | 6.18 | 4.66 | 
Cn1ncc2c(Nc3ccc(C(N)=O)cc3)nc(-c3ccccc3)nc21 [Example 11, 4-[(1-methyl-6-phenyl-1H-pyrazolo[3,4-d]pyrimidin-4-yl)amino]benzamide] | 0.167 | 1.58 | 0.95
COc1ccc(Nc2nc(-c3ccccc3)nc3c2cnn3C2CCNCC2)cc1OC [Example 13, N-(3,4-dimethoxyphenyl)-6-phenyl-1-piperidin-4-yl-1H-pyrazolo[3,4-d]pyrimidin-4-amine] | > 10 | 7.7 | 
CC(=O)Nc1cccc(Nc2nc(-c3ccccc3)nc3c2cnn3C2CCNCC2)c1 [Example 15, N-{3-[(6-phenyl-1-piperidin-4-yl-1H-pyrazolo[3,4-d]pyrimidin-4-yl)amino]phenyl}acetamide] | > 10 | 8.3 | 
COc1ccc(Nc2nc(-c3cccc(O)c3)nc3c2cnn3C2CCNCC2)cc1OC [Example 17, 3-{4[(3,4-dimethoxyphenyl)amino]-1-piperidin-4-yl-1H-pyrazolo[3,4-d]pyrimidin-6-yl}phenol] | > 10 | 5.84 | 
NC(=O)c1cccc(Nc2nc(-c3cccc(O)c3)nc3c2cnn3C2CCNCC2)c1 [Example 18, 3-{[6-(3-hydroxyphenyl)-1-piperidin-4-yl-1H-pyrazolo[3,4-d]pyrimidin-4-yl]amino}benzamide] | > 10 | 9.72 | 
Oc1cccc(-c2nc(Nc3ccc4[nH]ccc4c3)c3cnn(C4CCNCC4)c3n2)c1 [Example 19, 3-[4-(1H-indol-5-ylamino)-1-piperidin-4-yl-1H-pyrazolo[3,4-d]pyrimidin-6-yl]phenol] | > 10 | 5.93 | 
NC(=O)c1ccc(Nc2nc(-c3cccc([N+](=O)[O-])c3)nc3c2cnn3C2CCN(Cc3ccccc3)CC2)cc1 [Example 21, 4-{[1-(1-benzylpiperidin-4-yl)-6-(3-nitrophenyl)-1H-pyrazolo[3,4-d]pyrimidin-4-yl]amino}benzamide] | 2.81 | 2.46 | 
COc1cccc(-c2nc(Nc3ccc(C(N)=O)cc3)c3cnn(C4CCN(Cc5ccccc5)CC4)c3n2)c1 [Example 23, 4-{[1-(1-benzylpiperidin-4-yl)-6-(3-methoxyphenyl)-1H-pyrazolo[3,4-d]pyrimidin-4-yl]amino}benzamide] | 2.65 | 2.75 | 
NC(=O)c1ccc(Nc2nc(-c3ccc(O)cc3)nc3c2cnn3C2CCN(Cc3ccccc3)CC2)cc1 [Example 24, 4-{[1-(1-benzylpiperidin-4-yl)-6-(4-hydroxyphenyl)-1H-pyrazolo[3,4-d]pyrimidin-4-yl]amino}benzamide] | 5.45 | 5.25 | 
NC(=O)c1ccc(Nc2nc(-c3cccc(C(F)(F)F)c3)nc3c2cnn3C2CCN(Cc3ccccc3)CC2)cc1 [Example 25, 4-({1-(1-benzylpiperidin-4-yl)-6-[3-(trifluoromethyl)phenyl]-1H-pyrazolo[3,4-d]pyrimidin-4-yl}amino)benzamide] | 3.43 | 2.25 | 
NC(=O)c1ccc(Nc2nc(-c3ccccc3O)nc3c2cnn3C2CCN(Cc3ccccc3)CC2)cc1 [Example 26, 4-{[1-(1-benzylpiperidin-4-yl)-6-(2-hydroxyphenyl)-1H-pyrazolo[3,4-d]pyrimidin-4-yl]amino}benzamide] | 2.25 | 4 | 
COc1ccc(Nc2nc(-c3ccc(O)cc3)nc3c2cnn3C2CCN(Cc3ccccc3)CC2)cc1OC [Example 30, 4-{1-(1-benzylpiperidin-4-yl)-4-[(3,4-dimethoxyphenyl)amino]-1H-pyrazolo[3,4-d]pyrimidin-6-yl}phenol] | > 5.94 | 3.32 | 
COc1ccc(N(C)c2nc(-c3ccccc3)nc3c2cnn3C)cc1OC [Example 36, N-(3,4-dimethoxyphenyl)-N,1-dimethyl-6-phenyl-1H-pyrazolo[3,4-d]pyrimidin-4-amine] | > 9.75 |  | 
CN(C)c1ccc(-c2nc(Oc3ccc4[nH]ccc4c3)c3cnn(C)c3n2)cc1 [Example 40, 4-[4-(1H-indol-5-yloxy)-1-methyl-1H-pyrazolo[3,4-d]pyrimidin-6-yl]-N,N-dimethylaniline] | 3.78 | > 10 | 
Cn1ncc2c(Oc3ccc4[nH]ccc4c3)nc(-c3cccc(C(F)(F)F)c3)nc21 [Example 42, 4-(1H-indol-5-yloxy)-1-methyl-6-[3-(trifluoromethyl)phenyl]-1H-pyrazolo[3,4-d]pyrimidine] | 1.21 | 0.956 | 
Cn1ncc2c(Oc3ccc4[nH]ccc4c3)nc(-c3cccc(-c4ccccc4)c3)nc21 [Example 44, 6-biphenyl-3-yl-4-(1H-indol-5-yloxy)-1-methyl-1H-pyrazolo[3,4-d]pyrimidine] | 2.87 | > 10 | 
COc1ccc(Oc2nc(-c3ccc(N(C)C)cc3)nc3c2cnn3C)cc1OC [Example 47, 4-[4-(3,4-dimethoxyphenoxy)-1-methyl-1H-pyrazolo[3,4-d]pyrimidin-6-yl]-N,N-dimethylaniline] | 6.04 | > 10 | 
CC(=O)Nc1ccc(Oc2nc(-c3ccc(N(C)C)cc3)nc3c2cnn3C)cc1 [Example 51, N-[4-({6-[4-(dimethylamino)phenyl]-1-methyl-1H-pyrazolo[3,4-d]pyrimidin-4-yl}oxy)phenyl]acetamide] | 4.96 | > 10 | 
CC(=O)Nc1ccc(Oc2nc(-c3cccc(C(F)(F)F)c3)nc3c2cnn3C)cc1 [Example 52, N-[4-({1-methyl-6-[3-(trifluoromethyl)phenyl]-1H-pyrazolo[3,4-d]pyrimidin-4-yl}oxy)phenyl]acetamide] | 1.33 | 10.5 | 
CC(=O)Nc1ccc(Oc2nc(-c3cccc(-c4ccccc4)c3)nc3c2cnn3C)cc1 [Example 53, N-{4-[(6-biphenyl-3-yl-1-methyl-1H-pyrazolo[3,4-d]pyrimidin-4-yl)oxy]phenyl}acetamide] | 4.62 | > 10 | 
